According to ChEMBL document CHEMBL3992500, “Design, facile synthesis and biological evaluations of novel pyrano[3,2-a]phenazine hybrid molecules as antitumor agents” (Eur J Med Chem, 2017):
Calls of active or inactive are those of the source. The rule behind the calls is not given here.

Key:
[1] = target: DNA topoisomerase 2-alpha (Homo sapiens) (UniProt P11388); assay: Inhibition of DNA topoisomerase-2alpha (unknown origin) assessed as reduction in enzyme-catalyzed relaxation of pBR322 DNA substrate at 20 uM after 30 mins by ethidium bromide staining based electrophoresis
Chain of DNA topoisomerase 2-alpha (Homo sapiens) (P11388 whole entry): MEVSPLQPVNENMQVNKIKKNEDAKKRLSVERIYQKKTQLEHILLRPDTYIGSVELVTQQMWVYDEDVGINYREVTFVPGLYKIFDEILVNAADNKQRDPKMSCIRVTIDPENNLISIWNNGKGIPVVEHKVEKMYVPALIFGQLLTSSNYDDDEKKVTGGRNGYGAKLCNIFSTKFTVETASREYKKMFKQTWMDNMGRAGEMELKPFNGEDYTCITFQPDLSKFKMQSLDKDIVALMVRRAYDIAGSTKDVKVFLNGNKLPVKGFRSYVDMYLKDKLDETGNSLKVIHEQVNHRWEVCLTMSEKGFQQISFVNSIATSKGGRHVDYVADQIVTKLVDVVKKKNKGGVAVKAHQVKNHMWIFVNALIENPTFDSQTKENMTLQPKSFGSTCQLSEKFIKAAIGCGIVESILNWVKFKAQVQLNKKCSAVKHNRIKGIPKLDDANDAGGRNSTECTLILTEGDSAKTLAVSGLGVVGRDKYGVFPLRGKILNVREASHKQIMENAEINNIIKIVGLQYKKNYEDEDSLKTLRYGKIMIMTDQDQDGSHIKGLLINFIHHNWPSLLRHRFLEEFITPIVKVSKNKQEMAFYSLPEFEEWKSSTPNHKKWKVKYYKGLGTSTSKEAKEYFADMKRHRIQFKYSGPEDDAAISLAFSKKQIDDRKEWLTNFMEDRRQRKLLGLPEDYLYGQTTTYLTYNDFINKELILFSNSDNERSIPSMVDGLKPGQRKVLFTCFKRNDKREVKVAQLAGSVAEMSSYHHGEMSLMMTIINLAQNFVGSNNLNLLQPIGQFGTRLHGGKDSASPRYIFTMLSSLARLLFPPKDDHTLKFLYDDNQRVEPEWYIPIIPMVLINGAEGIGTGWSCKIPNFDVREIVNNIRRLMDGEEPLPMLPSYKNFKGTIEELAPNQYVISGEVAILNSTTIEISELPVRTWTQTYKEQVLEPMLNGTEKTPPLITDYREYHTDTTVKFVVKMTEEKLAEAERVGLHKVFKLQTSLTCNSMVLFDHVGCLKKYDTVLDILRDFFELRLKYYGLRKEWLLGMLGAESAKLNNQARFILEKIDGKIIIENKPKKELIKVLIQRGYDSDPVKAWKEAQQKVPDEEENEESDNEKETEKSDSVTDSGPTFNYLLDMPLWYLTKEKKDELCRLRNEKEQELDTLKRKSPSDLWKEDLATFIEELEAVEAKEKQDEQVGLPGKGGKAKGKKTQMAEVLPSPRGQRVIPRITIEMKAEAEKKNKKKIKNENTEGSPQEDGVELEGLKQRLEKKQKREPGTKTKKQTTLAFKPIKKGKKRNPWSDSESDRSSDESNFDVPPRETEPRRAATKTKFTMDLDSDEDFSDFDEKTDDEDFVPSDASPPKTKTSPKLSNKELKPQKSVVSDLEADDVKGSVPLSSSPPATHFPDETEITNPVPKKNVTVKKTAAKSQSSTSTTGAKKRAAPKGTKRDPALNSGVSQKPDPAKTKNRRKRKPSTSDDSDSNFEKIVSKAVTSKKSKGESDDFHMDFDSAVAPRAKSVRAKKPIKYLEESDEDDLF

HCT-116 = assay: Antiproliferative activity against human HCT116 cells after 48 hrs by MTT assay; type: functional, cell-based; conditions: HCT-116, 48 h
MCF7 = assay: Antiproliferative activity against human MCF7 cells after 48 hrs by MTT assay; type: functional, cell-based; conditions: MCF7, 48 h
HepG2 = assay: Antiproliferative activity against human HepG2 cells after 48 hrs by MTT assay; type: functional, cell-based; conditions: HepG2, 48 h
A549 = assay: Antiproliferative activity against human A549 cells after 48 hrs by MTT assay; type: functional, cell-based; conditions: A549, 48 h
[2] = Antitumor activity against mouse H22-H8D8 cells implanted in ICR mouse assessed as tumor growth inhibition at 5 mg/kg, iv relative to control; type: functional; conditions: read-out: TGI
[3] = Antitumor activity against mouse H22-H8D8 cells implanted in ICR mouse assessed as tumor growth inhibition at 10 mg/kg, iv relative to control; type: functional; conditions: read-out: TGI
[4] = Antitumor activity against mouse H22-H8D8 cells implanted in ICR mouse assessed as tumor growth inhibition at 20 mg/kg, iv relative to control; type: functional; conditions: read-out: TGI
Mus musculus [5] = assay: Toxicity in ICR mouse implanted with mouse H22-H8D8 cells assessed as body weight at 5 mg/kg, iv (reference value: 29.89 to 33.78 g); type: organism-based; conditions: in vivo
Mus musculus [6] = assay: Toxicity in ICR mouse implanted with mouse H22-H8D8 cells assessed as body weight at 10 mg/kg, iv (reference value: 29.89 to 33.78 g); type: organism-based; conditions: in vivo
Mus musculus [7] = assay: Toxicity in ICR mouse implanted with mouse H22-H8D8 cells assessed as body weight at 20 mg/kg, iv (reference value: 29.89 to 33.78 g); type: organism-based; conditions: in vivo
[8] = target: T1, DNA topoisomerase 1 (Homo sapiens) (UniProt P11387); assay: Inhibition of DNA topoisomerase-1 (unknown origin) assessed as reduction in enzyme-catalyzed relaxation of pBR322 DNA substrate at 20 uM after 30 mins by ethidium bromide staining based electrophoresis
T1 sequence (whole entry): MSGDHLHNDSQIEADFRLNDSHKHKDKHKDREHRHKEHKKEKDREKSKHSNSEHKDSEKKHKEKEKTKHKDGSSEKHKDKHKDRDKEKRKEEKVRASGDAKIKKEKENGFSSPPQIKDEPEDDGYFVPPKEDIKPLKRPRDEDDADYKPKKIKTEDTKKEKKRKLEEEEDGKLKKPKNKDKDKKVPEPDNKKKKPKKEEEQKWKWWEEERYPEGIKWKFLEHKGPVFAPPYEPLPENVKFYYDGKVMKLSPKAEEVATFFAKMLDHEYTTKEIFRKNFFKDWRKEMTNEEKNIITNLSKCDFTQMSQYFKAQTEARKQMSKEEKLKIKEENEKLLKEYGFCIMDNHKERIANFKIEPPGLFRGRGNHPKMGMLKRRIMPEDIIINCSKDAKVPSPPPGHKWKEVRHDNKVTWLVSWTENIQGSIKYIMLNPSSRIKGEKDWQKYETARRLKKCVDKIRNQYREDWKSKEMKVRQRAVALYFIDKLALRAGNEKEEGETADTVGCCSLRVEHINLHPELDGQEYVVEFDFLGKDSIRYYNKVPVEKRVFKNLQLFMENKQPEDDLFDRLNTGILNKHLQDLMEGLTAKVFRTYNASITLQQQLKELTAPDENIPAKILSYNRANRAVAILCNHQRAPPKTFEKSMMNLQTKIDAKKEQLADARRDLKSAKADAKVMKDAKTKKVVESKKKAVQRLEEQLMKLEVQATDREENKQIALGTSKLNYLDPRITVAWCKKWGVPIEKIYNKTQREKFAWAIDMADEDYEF

Row | SMILES | IC50 (HCT-116) [µM] | IC50 (MCF7) [µM] | IC50 (HepG2) [µM] | IC50 (A549) [µM] | also measured
1 | COc1cc([C@@H]2c3cc4c(cc3[C@@H](O[C@@H]3O[C@@H]5CO[C@@H](C)O[C@H]5[C@H](O)[C@H]3O)[C@H]3COC(=O)[C@H]23)OCO4)cc(OC)c1O |  |  |  |  | inhibition [1]: Active
2 | COc1cc(C2C(C#N)=C(N)Oc3c(N)cc4nc5ccccc5nc4c32)cc(OC)c1O (centres undefined) | 7.6 | 28.8 | > 50 | > 50 | 
3 | CCOC(=O)C1=C(N)Oc2c(N)cc3nc4ccccc4nc3c2C1c1ccc(Cl)c(Cl)c1 (centres undefined) | > 50 | 8.4 | 24.2 | 17.1 | 
4 | COc1cc(OC)c(C2C(C#N)=C(N)Oc3c(N)cc4nc5ccccc5nc4c32)cc1OC (centres undefined) | 30.6 | > 50 | 23.1 | 44.6 | 
5 | N#CC1=C(N)Oc2c(N)cc3nc4ccccc4nc3c2C1c1c(Cl)cccc1Cl (centres undefined) | 10.2 | 40.2 | > 50 | 12 | 
6 | CCOC(=O)C1=C(N)Oc2c(N)cc3nc4ccccc4nc3c2C1c1ccc(Br)cc1 (centres undefined) | 20.2 | > 50 | 10.6 | 17.3 | 
7 | N#CC1=C(N)Oc2c(N)cc3nc4ccccc4nc3c2C1c1ccc(Cl)cc1 (centres undefined) | 10.2 | 18.6 | 2.2 | 9.5 | inhibition in vivo at 5 mg/kg [2]: 0.09%; inhibition in vivo at 10 mg/kg [3]: 11.7%; inhibition in vivo at 20 mg/kg [4]: 57.7%; Activity (Mus musculus [5]): 40 g; Activity (Mus musculus [6]): 41.33 g; Activity (Mus musculus [7]): 37.22 g; inhibition [8]: Active; inhibition [1]: Active
8 | CCOC(=O)C1=C(N)Oc2c(N)cc3nc4ccccc4nc3c2C1c1ccc(Cl)cc1Cl (centres undefined) | 12.1 | > 50 | 11.5 | 19.1 | 
9 | CCOC(=O)C1=C(N)Oc2c(N)cc3nc4ccccc4nc3c2C1c1cc(Br)c(OC)c(OC)c1 (centres undefined) | 9.7 | > 50 | 10.3 | 10.3 | 
10 | N#CC1=C(N)Oc2c(N)cc3nc4ccccc4nc3c2C1c1ccc(Br)cc1 (centres undefined) | 6.3 | > 50 | 10.3 | 11.2 | 
11 | COc1cc(C2C(C#N)=C(N)Oc3c(N)cc4nc5ccccc5nc4c32)cc(OC)c1Br (centres undefined) | 18.2 | > 50 | 12.4 | 24.2 | 
12 | COc1cc(C2C(C#N)=C(N)Oc3c(N)cc4nc5ccccc5nc4c32)cc(Br)c1OC (centres undefined) | 12.1 | 25.6 | 6.2 | 5.3 | 
13 | N#CC1=C(N)Oc2c(N)cc3nc4ccccc4nc3c2C1c1cccc(Cl)c1 (centres undefined) | 15.1 | 39.1 | 9.4 | 21.4 | 
14 | CCOC(=O)C1=C(N)Oc2c(N)cc3nc4ccccc4nc3c2C1c1ccc([N+](=O)[O-])cc1 (centres undefined) | 16.4 | 13.2 | 6.7 | 18.8 | 
15 | N#CC1=C(N)Oc2c(N)cc3nc4ccccc4nc3c2C1c1ccc([N+](=O)[O-])cc1 (centres undefined) | 14.5 | > 50 | 18.1 | 15.9 | 
16 | CCOC(=O)C1=C(N)Oc2c(N)cc3nc4ccccc4nc3c2C1c1cccc(Br)c1 (centres undefined) | 10.8 | > 50 | > 50 | 13.4 | 
17 | O=P1(N(CCCl)CCCl)NCCCO1 (centres undefined) [CYCLOPHOSPHAMIDE ANHYDROUS] |  |  |  |  | inhibition in vivo at 20 mg/kg [4]: 66.7 to 67.8%; Activity (Mus musculus [7]): 34.3 to 35.6 g
18 | CCOC(=O)C1=C(N)Oc2c(N)cc3nc4ccccc4nc3c2C1c1ccc(OC)c(F)c1 (centres undefined) | 20.5 | > 50 | 8.5 | 24.8 | 
19 | COc1ccc(C2C(C#N)=C(N)Oc3c(N)cc4nc5ccccc5nc4c32)cc1OC (centres undefined) | > 50 | > 50 | > 50 | > 50 | 
